US12509444B2, “Compounds and methods for CD73 modulation and indications therefor” (Plexxikon Inc., priority 2019, dated 2025)

What was measured:
[1] = target: T1, Human CD73 (amino acid residues 27-549) (Homo sapiens, UniProt P21589); assay: CD73 enzymatic assay (luciferase-based indirect assay, CellTiter-Glo); format: biochemical; conditions: 0.4 nM CD73, 150 μM AMP, 1 hour at room temperature
T1 construct: Human CD73 (amino acid residues 27-549); His tag (N); made in house; host or cells: E. coli
T1 sequence (P21589 27-549): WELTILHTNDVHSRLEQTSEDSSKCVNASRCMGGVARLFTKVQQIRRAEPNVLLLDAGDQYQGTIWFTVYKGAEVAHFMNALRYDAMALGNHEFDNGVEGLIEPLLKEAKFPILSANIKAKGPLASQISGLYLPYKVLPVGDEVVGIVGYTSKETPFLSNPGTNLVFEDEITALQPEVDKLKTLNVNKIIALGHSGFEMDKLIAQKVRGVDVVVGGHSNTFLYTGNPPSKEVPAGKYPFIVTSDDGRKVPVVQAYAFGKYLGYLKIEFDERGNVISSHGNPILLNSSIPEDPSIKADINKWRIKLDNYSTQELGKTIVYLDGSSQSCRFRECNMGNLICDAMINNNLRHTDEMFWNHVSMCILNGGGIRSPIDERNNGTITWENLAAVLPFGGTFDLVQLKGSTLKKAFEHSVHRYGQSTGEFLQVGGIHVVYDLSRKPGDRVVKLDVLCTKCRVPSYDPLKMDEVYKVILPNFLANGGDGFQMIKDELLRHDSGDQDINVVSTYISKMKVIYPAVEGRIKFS
How it was run: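 Residual AMP inhibits luciferase, so luminescence reports CD73 turnover; read with CellTiter-Glo 2.0 plus 1 μM final ATP, 30 min. Reaction used 0.4 nM N-His CD73 (27-549, E. coli), 150 μM AMP, HEPES pH 7.4 with Tween 20, 1 h at room temperature. IC50 fitted by nonlinear regression.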

[2] = target: T2, human CD73 (Homo sapiens, UniProt P21589); assay: Inhibitor activity against CD73 in cell based assay (CD73 expressing CHO-K1 cells); conditions: CHO-K1 cells expressing human CD73, 150 μM AMP, 4 hours of incubation; read-out: CHO-K1 CELL VARIANT: CD73 IC50
T2 construct: expressed in transfected cells
T2 sequence (P21589 27-549): T1 sequence (P21589 27-549)
How it was run: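 Residual supernatant AMP was quantified via CellTiter-Glo luminescence (1 μM ATP added, 30 min, room temperature) after a 4 h exposure of human CD73-expressing CHO-K1 cells to 150 μM AMP plus compound, top final 10 μM, 8 points. IC50 came from nonlinear regression of percent inhibition.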

IC50 [1]	IC50 [2]	SMILES
0.001 to 10 µM	0.001 to 10 µM	C=CS(=O)(=O)N[C@H]1CC[C@H](NC(=O)O[C@@H]2CCN(c3cn[nH]c(=O)c3Cl)C2)CC1 [P-0308, (R)-1-(5-chloro-6-oxo-1,6-dihydropyridazin-4-yl)pyrrolidin-3-yl ((1r,4R)-4-(vinylsulfonamido)cyclohexyl) carbamate]
0.001 to 10 µM	0.001 to 10 µM	O=C(N[C@H]1CC[C@H](NS(=O)(=O)c2c[nH]cn2)CC1)O[C@@H]1CCN(c2cn[nH]c(=O)c2Cl)C1 [P-0309, (R)-1-(5-chloro-6-oxo-1,6-dihydropyridazin-4-yl)pyrrolidin-3-yl ((1r,4R)-4-(1H-imidazole-4-sulfonamido)cyclohexyl) carbamate]
0.001 to 10 µM	0.001 to 10 µM	CN1CCN(S(=O)(=O)N[C@H]2CC[C@H](NC(=O)O[C@@H]3CCN(c4cn[nH]c(=O)c4Cl)C3)CC2)CC1 [P-0310, (R)-1-(5-chloro-6-oxo-1,6-dihydropyridazin-4-yl)pyrrolidin-3-yl ((1r,4R)-4-((4-methylpiperazine)-1-sulfonamido)cyclohexyl) carbamate]
0.001 to 10 µM	0.001 to 10 µM	CC(C)NS(=O)(=O)N[C@H]1CC[C@H](NC(=O)O[C@@H]2CCN(c3cn[nH]c(=O)c3Cl)C2)CC1 [P-0311, (R)-1-(5-chloro-6-oxo-1,6-dihydropyridazin-4-yl)pyrrolidin-3-yl ((1r,4R)-4-((N-isopropylsulfamoyl)amino)cyclohexyl)carbamate]
0.001 to 10 µM	0.001 to 10 µM	CNS(=O)(=O)N[C@H]1CC[C@H](NC(=O)O[C@@H]2CCN(c3cn[nH]c(=O)c3Cl)C2)CC1 [P-0312, (R)-1-(5-chloro-6-oxo-1,6-dihydropyridazin-4-yl)pyrrolidin-3-yl ((1r,4R)-4-((N-methylsulfamoyl)amino)cyclohexyl)carbamate]
0.001 to 10 µM	0.001 to 10 µM	CC1(S(=O)(=O)N[C@H]2CC[C@H](NC(=O)O[C@@H]3CCN(c4cn[nH]c(=O)c4Cl)C3)CC2)CC1 [P-0313, (R)-1-(5-chloro-6-oxo-1,6-dihydropyridazin-4-yl)pyrrolidin-3-yl ((1r,4R)-4-((1-methylcyclopropane)-1-sulfonamido)cyclohexyl) carbamate]
0.001 to 10 µM	0.001 to 10 µM	O=C(N[C@H]1CC[C@H](NC(=O)c2ccccc2F)CC1)O[C@@H]1CCN(c2cn[nH]c(=O)c2Cl)C1 [P-0314, (R)-1-(5-chloro-6-oxo-1,6-dihydropyridazin-4-yl)pyrrolidin-3-yl ((1r,4R)-4-(2-fluorobenzamido)cyclohexyl) carbamate]
0.001 to 10 µM	0.001 to 10 µM	O=C(N[C@H]1CC[C@H](NC(=O)c2cccc(F)c2)CC1)O[C@@H]1CCN(c2cn[nH]c(=O)c2Cl)C1 [P-0315, (R)-1-(5-chloro-6-oxo-1,6-dihydropyridazin-4-yl)pyrrolidin-3-yl ((1r,4R)-4-(3-fluorobenzamido)cyclohexyl) carbamate]
0.001 to 10 µM	0.001 to 10 µM	Cc1ccccc1C(=O)N[C@H]1CC[C@H](NC(=O)O[C@@H]2CCN(c3cn[nH]c(=O)c3Cl)C2)CC1 [P-0316, (R)-1-(5-chloro-6-oxo-1,6-dihydropyridazin-4-yl)pyrrolidin-3-yl ((1r,4R)-4-(2-methylbenzamido)cyclohexyl) carbamate]
0.001 to 10 µM	0.001 to 10 µM	Cc1cccc(C(=O)N[C@H]2CC[C@H](NC(=O)O[C@@H]3CCN(c4cn[nH]c(=O)c4Cl)C3)CC2)c1 [P-0317, (R)-1-(5-chloro-6-oxo-1,6-dihydropyridazin-4-yl)pyrrolidin-3-yl ((1r,4R)-4-(3-methylbenzamido)cyclohexyl) carbamate]
0.001 to 10 µM	0.001 to 10 µM	O=C(N[C@H]1CC[C@H](NC(=O)c2ccc(C(F)(F)F)nc2)CC1)O[C@@H]1CCN(c2cn[nH]c(=O)c2Cl)C1 [P-0318, (R)-1-(5-chloro-6-oxo-1,6-dihydropyridazin-4-yl)pyrrolidin-3-yl ((1r,4R)-4-(6-(trifluoromethyl)nicotinamido)cyclohexyl)carbamate]
0.001 to 10 µM	0.001 to 10 µM	CNC(=O)N[C@H]1CC[C@H](NC(=O)O[C@@H]2CCN(c3cn[nH]c(=O)c3Cl)C2)CC1 [P-0319, (R)-1-(5-chloro-6-oxo-1,6-dihydropyridazin-4-yl)pyrrolidin-3-yl ((1r,4R)-4-(3-methylureido)cyclohexyl) carbamate]
0.001 to 10 µM	0.001 to 10 µM	CC(C)NC(=O)N[C@H]1CC[C@H](NC(=O)O[C@@H]2CCN(c3cn[nH]c(=O)c3Cl)C2)CC1 [P-0320, (R)-1-(5-chloro-6-oxo-1,6-dihydropyridazin-4-yl)pyrrolidin-3-yl ((1r,4R)-4-(3-isopropylureido)cyclohexyl) carbamate]
0.001 to 10 µM	0.001 to 10 µM	Cc1ccc(NC(=O)N[C@H]2CC[C@H](NC(=O)O[C@@H]3CCN(c4cn[nH]c(=O)c4Cl)C3)CC2)cc1 [P-0321, (R)-1-(5-chloro-6-oxo-1,6-dihydropyridazin-4-yl)pyrrolidin-3-yl ((1r,4R)-4-(3-(p-tolyl)ureido)cyclohexyl) carbamate]
0.001 to 10 µM	0.001 to 10 µM	N#Cc1ccc(NC(=O)N[C@H]2CC[C@H](NC(=O)O[C@@H]3CCN(c4cn[nH]c(=O)c4Cl)C3)CC2)cc1 [P-0322, (R)-1-(5-chloro-6-oxo-1,6-dihydropyridazin-4-yl)pyrrolidin-3-yl ((1r,4R)-4-(3-(4-cyanophenyl)ureido)cyclohexyl)carbamate]
0.001 to 10 µM	0.001 to 10 µM	O=C(Nc1ccc(F)cc1F)N[C@H]1CC[C@H](NC(=O)O[C@@H]2CCN(c3cn[nH]c(=O)c3Cl)C2)CC1 [P-0323, (R)-1-(5-chloro-6-oxo-1,6-dihydropyridazin-4-yl)pyrrolidin-3-yl ((1r,4R)-4-(3-(2,4-difluorophenyl)ureido)cyclohexyl)carbamate]
0.001 to 10 µM	0.001 to 10 µM	O=C(NCC(F)(F)F)N[C@H]1CC[C@H](NC(=O)O[C@@H]2CCN(c3cn[nH]c(=O)c3Cl)C2)CC1 [P-0324, (R)-1-(5-chloro-6-oxo-1,6-dihydropyridazin-4-yl)pyrrolidin-3-yl ((1r,4R)-4-(3-(2,2,2-trifluoroethyl)ureido)cyclohexyl)carbamate]
0.001 to 10 µM	0.001 to 10 µM	COC(=O)N[C@H]1CC[C@H](NC(=O)O[C@@H]2CCN(c3cn[nH]c(=O)c3Cl)C2)CC1 [P-0325, (R)-1-(5-chloro-6-oxo-1,6-dihydropyridazin-4-yl)pyrrolidin-3-yl methyl ((1R,4r)-cyclohexane-1,4-diyl)dicarbamate]
0.001 to 10 µM	0.001 to 10 µM	O=C(NC1CC1)N[C@H]1CC[C@@H](NC(=O)O[C@@H]2CCN(c3cn[nH]c(=O)c3Cl)C2)CC1 [P-0326, (R)-1-(5-chloro-6-oxo-1,6-dihydropyridazin-4-yl)pyrrolidin-3-yl ((1s,4S)-4-(3-cyclopropylureido)cyclohexyl) carbamate]
0.001 to 10 µM	0.001 to 10 µM	CC(C)(C)C(=O)N[C@H]1CC[C@@H](NC(=O)O[C@@H]2CCN(c3cn[nH]c(=O)c3Cl)C2)CC1 [P-0327, (R)-1-(5-chloro-6-oxo-1,6-dihydropyridazin-4-yl)pyrrolidin-3-yl ((1s,4S)-4-pivalamidocyclohexyl) carbamate]
0.001 to 10 µM	0.001 to 10 µM	O=C(NC1CCC2(CC1)CS(=O)(=O)C2)O[C@@H]1CCN(c2cn[nH]c(=O)c2Cl)C1 [P-0328, (R)-1-(5-chloro-6-oxo-1,6-dihydropyridazin-4-yl)pyrrolidin-3-yl (2,2-dioxido-2-thiaspiro[3.5]nonan-7-yl)carbamate]
0.001 to 10 µM	0.001 to 10 µM	O=C(N[C@H]1CC[C@@H](NC2CCCCC2)CC1)O[C@@H]1CCN(c2cn[nH]c(=O)c2Cl)C1 [P-0329, (R)-1-(5-chloro-6-oxo-1,6-dihydropyridazin-4-yl)pyrrolidin-3-yl ((1s,4S)-4-(cyclohexylamino)cyclohexyl) carbamate]
0.001 to 10 µM	0.001 to 10 µM	O=C(N[C@H]1CC[C@@H](Nc2cc(F)ccn2)CC1)O[C@@H]1CCN(c2cn[nH]c(=O)c2Cl)C1 [P-0330, (R)-1-(5-chloro-6-oxo-1,6-dihydropyridazin-4-yl)pyrrolidin-3-yl ((1s,4S)-4-((4-fluoropyridin-2-yl)amino)cyclohexyl)carbamate]
0.001 to 10 µM	10 to 100 µM	CC(C)(O)Cn1ncc(N2CC[C@@H](OC(=O)NC3CCC(F)(F)CC3)C2)c(Cl)c1=O [P-0331, (R)-1-(5-chloro-1-(2-hydroxy-2-methylpropyl)-6-oxo-1,6-dihydropyridazin-4-yl)pyrrolidin-3-yl (4,4-difluorocyclohexyl)carbamate]
